EC50 data for 40 molecules are collected here from patent publication US8865756B2, “Inhibitors of HCV NS5A” (Presidio Pharmaceuticals, Inc., priority 2008, dated 2014).

The assay has as its system HCV 1b_Huh-Luc/Neo-ET cell line persistently expressing a bicistronic genotype 1b replicon in Huh 7 cells. Description: HCV replicon assay (luciferase readout). Format: cell-based. Particulars: Hepatitis C virus, Huh-7, 72 h, read-out: Inhibition of HCV genotype 1b. Put shortly:
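Huh 7 cells carrying a genotype 1b luciferase/neo replicon treated in triplicate for 72 h, then luciferase activity measured. Signal expressed as % of control; EC50 from four-parameter logistic fit, determined several times.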
For orientation: Replicon systems follow genome replication, usually without infectious particles.

pEC50: −log10 of the molar value. Bounds are passed on as bounds.

As to `CC(C)(C)OC(=O)NC(C)(C)C(=O)N1CCC[C@H]1c1ncc(C#Cc2ccc(-c3cnc([C@@H]4CCCN4C(=O)C(C)(C)NC(=O)OC(C)(C)C)[nH]3)cc2)[nH]1` [Compound 106], the pEC50 is less than 6.00. Take `O=C(N[C@@H](C(=O)N1CCC[C@H]1c1ncc(-c2ccc(C#Cc3ccc(-c4cnc([C@@H]5CCCN5C(=O)[C@H](NC(=O)C5CC5)c5ccccc5)[nH]4)cc3)cc2)[nH]1)c1ccccc1)C1CC1` [Compound 153]: the pEC50 was greater than 9.00.

On to `COC(=O)N[C@H](C(=O)N1CCC[C@H]1c1ncc(-c2ccc(C#Cc3ccc4nc([C@@H]5CCCN5C(=O)[C@H](C(C)C)N(C)C)[nH]c4c3)cc2)[nH]1)C(C)C` [Compound 1021], for which the pEC50 is greater than 9.00. In the case of `CC(C)(C)OC(=O)N1CCC[C@H]1c1ncc(C#Cc2ccc(-c3cnc([C@@H]4CCCN4C(=O)OC(C)(C)C)[nH]3)cc2)[nH]1` [Compound 101] it was 6.00 to 8.00; in that of `COC(=O)N[C@H](C(=O)N1CCC[C@H]1c1nc2ccc3cc(C#Cc4ccc(-c5cnc([C@@H]6CCCN6C(=O)[C@H](NC(=O)OC)c6ccccc6)[nH]5)cc4F)ccc3c2[nH]1)C(C)C` [Compound 1100], greater than 9.00. Take `COC(=O)N[C@H](C(=O)N[C@@H](C)c1ncc(-c2ccc(C#Cc3ccc(-c4cnc([C@@H]5CCCN5C(=O)[C@@H](C(C)C)N(C)C)[nH]4)cc3)cc2)[nH]1)C(C)C` [Compound 964]: the pEC50 is 8.00 to 9.00.

Turning to `COC(=O)N[C@H](C(=O)N1CCC[C@H]1c1nc2c([nH]1)-c1ccc(C#Cc3ccc(-c4cnc([C@@H]5CCCN5C(=O)[C@H](NC(=O)OC)c5ccccc5)[nH]4)cc3F)cc1CC2)C(C)C` [Compound 1098], the pEC50 is greater than 9.00. `COC(=O)N[C@@H](C(=O)N1CCC[C@H]1c1ncc(-c2ccc(C#Cc3ccc(-c4cnc([C@@H]5CCCN5C(=O)[C@H](NC(=O)N5CCS(=O)(=O)CC5)c5ccccc5)[nH]4)cc3)cc2)[nH]1)c1ccccc1` [Compound 253]: the pEC50 was greater than 9.00. Turning to `COC(=O)N[C@H](C(=O)N[C@@H](C)c1ncc(-c2ccc(C#Cc3ccc(-c4cnc([C@@H]5CCCN5C(=O)[C@@H](NC(=O)OC)[C@@H](C)O)[nH]4)cc3)cc2)[nH]1)[C@@H](C)O` [Compound 291], the pEC50 was greater than 9.00. With `COC(=O)N[C@@H](C(=O)N1CCC[C@H]1c1ncc(-c2ccc(C#Cc3ccc(-c4cnc([C@@H]5CCCN5C(=O)Nc5ccccc5)[nH]4)cc3)cc2)[nH]1)c1ccccc1` [Compound 196], the pEC50 was 8.00 to 9.00. As for `CC(C)(C)OC(=O)N[C@@H](C(=O)N1CCC[C@H]1C(=O)Nc1ccc(C#Cc2ccc(-c3cnc([C@@H]4CCCN4C(=O)[C@H](NC(=O)OC(C)(C)C)c4ccccc4)[nH]3)cc2)cc1)c1ccccc1` [Compound 163], the pEC50 was greater than 9.00.

As for `COC(=O)N[C@H](C(=O)N1CCC[C@H]1c1ncc(C#Cc2ccc(-c3ccc(-c4cnc([C@@H]5CCCN5C(=O)[C@@H](NC(=O)OC)C(C)C)[nH]4)cc3)cc2)[nH]1)C(C)C` [Compound 756], the pEC50 is greater than 9.00. On to `COC[C@H]1CCCN1C(=O)N[C@@H](C(=O)N1CCC[C@H]1c1ncc(-c2ccc(C#Cc3ccc(-c4cnc([C@@H]5CCCN5C(=O)[C@H](NC(=O)OC)c5ccccc5)[nH]4)cc3)cc2)[nH]1)c1ccccc1` [Compound 259], for which the pEC50 was greater than 9.00.

As for `CC(C)[C@@H](NC(=O)N1CCCC1)C(=O)N1CCC[C@H]1c1ncc(-c2ccc(C#Cc3ccc(-c4cnc([C@@H]5CCCN5C(=O)[C@H](NC(=O)N5CCCC5)C(C)C)[nH]4)cc3)cc2)[nH]1` [Compound 293], the pEC50 was less than 6.00. `COC(=O)N[C@H](C(=O)N1CCC[C@H]1c1nc2ccc(C#Cc3ccc(-c4cnc([C@@H]5CCCN5C(=O)[C@@H](C(C)C)N(C)C)[nH]4)cc3)cc2[nH]1)C(C)C` [Compound 865]: the pEC50 is greater than 9.00.

`COC(=O)N[C@H](Cc1ccccc1)C(=O)N1CCC[C@H]1c1ncc(-c2ccc(C#Cc3ccc(-c4cnc([C@@H]5CCCN5C(=O)[C@H](NC(=O)OC)c5ccccc5)[nH]4)cc3)cc2)[nH]1` [Compound 180]: the pEC50 was greater than 9.00. Regarding `COC(=O)N[C@H](C(=O)N1CCC[C@H]1c1ncc(-c2ccc(C#Cc3ccc(-c4cnc([C@H](C)NC(=O)[C@H](C(C)C)N(C)C)[nH]4)cc3)cc2)[nH]1)C(C)C` [Compound 981], the pEC50 is 6.00 to 8.00. `O=C([C@H](O)c1ccccc1)N1CCC[C@H]1c1ncc(-c2ccc(C#Cc3ccc(-c4cnc([C@@H]5CCCN5C(=O)[C@H](O)c5ccccc5)[nH]4)cc3)cc2)[nH]1` [Compound 157]: the pEC50 is greater than 9.00.

Consider `COC(=O)N[C@@H](C(=O)N1CCC[C@H]1c1ncc(-c2ccc(C#Cc3ccc(-c4cnc([C@@H]5CCCN5C(=O)[C@H](NC(=O)N5CC[C@H](OC)C5)c5ccccc5)[nH]4)cc3)cc2)[nH]1)c1ccccc1` [Compound 272], for which the pEC50 is greater than 9.00. In the case of `COC(=O)N[C@H](C(=O)N1CCC[C@H]1c1ncc(-c2ccc(C#Cc3ccc(-c4cnc([C@@H]5CCCN5C(=O)[C@H](C(C)C)N5CCOC5=O)[nH]4)cc3)cc2)[nH]1)C(C)C` [Compound 996] it was greater than 9.00; in that of `O=C(N[C@@H](C(=O)N1CCC[C@H]1C(=O)Nc1ccc(C#Cc2ccc(-c3cnc([C@@H]4CCCN4C(=O)[C@H](NC(=O)C4CC4)c4ccccc4)[nH]3)cc2)cc1)c1ccccc1)C1CC1` [Compound 166], greater than 9.00; in that of `CC(C)(C)OC(=O)N[C@@H](C(=O)N1CCC[C@H]1C(=O)NCCc1ccc(C#Cc2cnc([C@@H]3CCCN3C(=O)[C@H](NC(=O)OC(C)(C)C)c3ccccc3)[nH]2)cc1)c1ccccc1` [Compound 124], greater than 9.00. For the molecule `O=C(N[C@@H](C(=O)N1CCC[C@H]1c1ncc(-c2ccc(C#Cc3ccc(-c4cnc([C@@H]5CCCN5C(=O)[C@H](NC(=O)N5CCCC5)c5ccccc5)[nH]4)cc3)cc2)[nH]1)c1ccccc1)N1CCCC1` [Compound 249], the pEC50 is greater than 9.00.

For the molecule `COC(=O)N[C@H](C(=O)N[C@@H](C)c1ncc(-c2ccc(C#Cc3ccc(-c4cnc([C@@H]5CCCN5C(=O)[C@H](C(C)C)N(C)C)[nH]4)cc3)cc2)[nH]1)C(C)C` [Compound 963], the pEC50 is 8.00 to 9.00.

For `COC(=O)N[C@H](C(=O)N1CCC[C@H]1c1nc(-c2ccc3cc(C#Cc4cnc([C@@H]5CCCN5C(=O)[C@@H](NC(=O)OC)C(C)C)[nH]4)ccc3c2)c[nH]1)c1ccccc1` [Compound 1078], the pEC50 was greater than 9.00. In the case of `COC(=O)NC(C(=O)N1CCC[C@H]1c1ncc(-c2ccc(C#Cc3ccc(-c4cnc([C@@H]5CCCN5C(=O)[C@@H](NC(=O)OC)C(C)C)[nH]4)cc3)cc2)[nH]1)[C@@H](C)O` (stereo partly shown) [Compound 971] it was greater than 9.00; in that of `CNC(=O)N[C@@H](C(=O)N1CCC[C@H]1c1ncc(-c2ccc(C#Cc3ccc(-c4cnc([C@@H]5CCCN5C(=O)[C@H](NC(=O)C5CC5)c5ccccc5)[nH]4)cc3)cc2)[nH]1)c1ccccc1` [Compound 997], greater than 9.00; in that of `O=C(N[C@@H](C(=O)N1CCC[C@H]1c1ncc(C#Cc2ccc(-c3ccc(-c4cnc([C@@H]5CCCN5C(=O)[C@H](NC(=O)N5CCOCC5)c5ccccc5)[nH]4)cc3)cc2)[nH]1)c1ccccc1)N1CCOCC1` [Compound 761], greater than 9.00. As for `COC(=O)N[C@H](C(=O)N[C@@H](C)c1nc2ccc(C#Cc3ccc(-c4cnc([C@@H]5CCCN5C(=O)[C@@H](NC(=O)OC)C(C)C)[nH]4)cc3)cc2[nH]1)C(C)C` [Compound 867], the pEC50 is greater than 9.00.

Take `C[C@H](NC(=O)[C@H](NC(=O)OC(C)(C)C)c1ccccc1)c1ncc(-c2ccc(C#Cc3ccc(-c4cnc([C@@H]5CCCN5C(=O)[C@H](NC(=O)OC(C)(C)C)c5ccccc5)[nH]4)cc3)cc2)[nH]1` [Compound 280]: the pEC50 was greater than 9.00. On to `COC(=O)N[C@H](C(=O)N1CCC[C@H]1c1ncc(-c2cc(C)c(C#Cc3ccc4nc([C@@H]5CCCN5C(=O)[C@@H](NC(=O)OC)C(C)C)[nH]c4c3)c(C)c2)[nH]1)C(C)C` [Compound 1060], for which the pEC50 was greater than 9.00.

Turning to `COC(=O)N[C@@H](C(=O)N1CCC[C@H]1c1ncc(-c2ccc(C#Cc3ccc(-c4cnc([C@@H]5CCCN5C(=O)c5cccnc5)[nH]4)cc3)cc2)[nH]1)c1ccccc1` [Compound 183], the pEC50 was greater than 9.00.

For `COC(=O)N[C@@H](CC(=O)N1CCC[C@H]1c1ncc(-c2ccc(C#Cc3ccc4nc([C@@H]5CCCN5C(=O)C[C@H](NC(=O)OC)C(C)C)[nH]c4c3)cc2)[nH]1)C(C)C` [Compound 1064], the pEC50 was 6.00 to 8.00. In the case of `COC(=O)N[C@H](C(=O)N1CCC[C@H]1c1ncc(-c2ccc(C#Cc3ccc(-c4cnc([C@@H]5CCCN5C(=O)[C@@H](c5ccccc5)N5CCC(O)CC5)[nH]4)cc3)cc2)[nH]1)C(C)C` [Compound 956], the pEC50 is greater than 9.00.

As to `COC(=O)N[C@@H](C(=O)N1CCC[C@H]1c1ncc(-c2ccc(C#Cc3ccc(-c4cnc([C@@H]5CCCN5C(=O)[C@H](NC(=O)[C@@H]5CCCN5)c5ccccc5)[nH]4)cc3)cc2)[nH]1)c1ccccc1` [Compound 206], the pEC50 is greater than 9.00. In the case of `COC(=O)N[C@@H](C(=O)N1CCC[C@H]1c1ncc(C#Cc2ccc(-c3cnc([C@@H]4CCCN4C(=O)[C@H](NC(=O)OC)c4ccccc4)[nH]3)cc2)[nH]1)c1ccccc1` [Compound 110] it was greater than 9.00; in that of `CC(C)OC(=O)N[C@@H](C(=O)N1CCC[C@H]1c1ncc(-c2ccc(C#Cc3ccc(-c4cnc([C@@H]5CCCN5C(=O)[C@H](NC(=O)OC(C)C)c5ccccc5)[nH]4)cc3)cc2)[nH]1)c1ccccc1` [Compound 227], greater than 9.00. With `COC(=O)N[C@@H](C(=O)N[C@H](c1ncc(-c2ccc(C#Cc3ccc(-c4cnc([C@@H]5CCCN5C(=O)[C@H](NC(=O)OC)c5ccccc5)[nH]4)cc3)cc2)[nH]1)C(C)C)c1ccccc1` [Compound 282], the pEC50 is greater than 9.00.

As to `CCN(CC)[C@@H](C(=O)N1CCC[C@H]1c1ncc(-c2ccc(C#Cc3ccc(-c4cnc([C@@H]5CCCN5C(=O)[C@H](NS(C)(=O)=O)c5ccccc5)[nH]4)cc3)cc2)[nH]1)c1ccccc1` [Compound 229], the pEC50 is greater than 9.00.

`CN(C)[C@@H](C(=O)N1CCC[C@H]1c1ncc(-c2ccc(C#Cc3ccc(-c4cnc([C@@H]5CCCN5C(=O)[C@@H](c5ccccc5)N(C)C)[nH]4)cc3)cc2)[nH]1)c1ccccc1` [Compound 160]: the pEC50 is greater than 9.00.
